This note sets out measurements from patent US12678423B2, “Therapeutic agent for amyotrophic lateral sclerosis and composition for treatment” (KEIO UNIVERSITY, priority 2016, dated 2026).

Common to all, as to type: cell-based, human
Holding throughout (details): final concentration 10 μM, added days 35 to 40

Assay [1] has as its system motor neurons induced to differentiate from iPS cells derived from ALS patients (FUS-ALS) having a mutation in FUS. Briefly: LDH leakage ratio, FUS-ALS motor neurons. As for the experimental part:
(§1) The leakage amount of LDH into the medium is an indicator of cytotoxicity. For measurement of the LDH leakage ratio, a commercially available kit (model “LDH Cytotoxicity Detection Kit”, Takara Bio Inc.) was used.
(§2) Here, ropinirole was added to the medium on days 35 to 40 from the start of the differentiation induction of each iPS cell. Here, it is assumed that days 35 to 40 from the start of differentiation induction correspond to the early stage of the ALS disease.
(§3) The improvement ratio (%) of the ALS phenotype was calculated by Equation (1).
(§4) [formula] [In Equation (1), A represents a measurement value of motor neurons induced to differentiate from iPS cells derived from ALS patients in the absence of ropinirole, and B represents a measurement value of motor neurons induced to differentiate from iPS cells derived from ALS patients in the presence of ropinirole, and C represents a measurement value of motor neurons induced to differentiate from iPS cells derived from healthy subjects in the absence of ropinirole.]
(§5) Subsequently, in the same manner as above, the efficacy in cases of administering lower concentrations of ropinirole was evaluated.
(§6) Each drug was added to the medium at a final concentration of 10 μM.

The test system of assay [2] is motor neurons induced to differentiate from iPS cells derived from ALS patients (TDP-43-ALS) having a mutation in TDP-43. Briefly: LDH leakage ratio, TDP-43-ALS motor neurons. On the procedure:
as §1, §2, §3, §4, §5, §6

In assay [3] the test system is motor neurons induced to differentiate from iPS cells derived from ALS patients (FUS-ALS) having a mutation in FUS. Briefly: Ectopic localization of FUS protein in the cytoplasm, FUS-ALS motor neurons.
Text: Therefore, on day 40 from the start of differentiation induction, each differentiation-induced motor neuron in Example I-1 was immunostained and the localization of FUS protein in the cytoplasm was examined.
(§7) Using the differentiation-induced motor neurons in Example I-1, drugs which cause the ALS phenotype to be restored were screened from existing drug libraries with the neurite length, ectopic localization of FUS protein, stress granule formation, LDH leakage ratio, CV-caspase 3-positive ratio, phosphorylated TDP-43 protein inclusion formation, and the like as indices.
(§8) As a result of the screening, ropinirole was found as a promising therapeutic agent for ALS. Tables 5 and 6 show the improvement ratio (%) in the ALS phenotype due to adding ropinirole to the medium. Here, ropinirole was added to the medium on days 35 to 40 from the start of the differentiation induction of each iPS cell. Here, it is assumed that days 35 to 40 from the start of differentiation induction correspond to the early stage of the ALS disease.
as §3, §4, §5, §6

Assay [4] concerns motor neurons induced to differentiate from iPS cells derived from ALS patients (TDP-43-ALS) having a mutation in TDP-43. Briefly: Neurite length, TDP-43-ALS motor neurons (screening, Example I-8). On the procedure: (§9) For each differentiation-induced motor neuron in Example I-1, the changes over time in the neurite length were measured. A Bio station CT (Nikon Corp.) was used to measure the neurite length over time. FIG. 1 is a graph showing measurement results of changes over time in the neurite length. The vertical axis represents neurite length (relative value), and the horizontal axis represents the number of days of culturing from the start of differentiation induction.
as §7, §8, §3, §4, §5, §6

Assay [5] has the same test system. Briefly: Phosphorylated TDP-43 protein inclusion formation, TDP-43-ALS motor neurons.
Text: Therefore, on day 40 from the start of differentiation induction, each differentiation-induced motor neuron in Example I-1 was immunostained and the formation of phosphorylated TDP-43 protein inclusions was examined.
as §7, §8, §3, §4, §5, §6

Assay [6] relates to motor neurons induced to differentiate from iPS cells derived from ALS patients (FUS-ALS) having a mutation in FUS. Briefly: Neurite length, FUS-ALS motor neurons (screening, Example I-8). As for the experimental part: as §9, §7, §8, §3, §4, §5, §6
Assay [7] has the same test system. Nature of the assay: Stress granule formation (G3BP immunostaining), FUS-ALS motor neurons. As for the experimental part: On day 40 from the start of differentiation induction, the formation of stress granules was examined using each differentiation-induced motor neuron in Example I-1. The detection of stress granules was performed by immunostaining with G3BP, which is a marker of stress granules.
as §7, §8, §3, §4, §5, §6

As for `CO/N=C(\C(=O)N[C@@H]1C(=O)N2C(C(=O)O)=C(CSc3nc(=O)c(=O)[nH]n3C)CS[C@H]12)c1csc(N)n1` [Ceftriaxone], the figures for the “LDH leakage ratio improvement ratio” value in assay [1] and in assay [2] were 21.2% and 15.1%, respectively. The “Ectopic localization of FUS protein improvement ratio” value in assay [3] was found to be 22.6%. Also, the “Neurite length improvement ratio” value in assay [4] worked out at 20.4%; in assay [6], 36.3%. Also, in assay [5], the “TDP-43 inclusion formation improvement ratio” value is listed as 35.4%. The “Stress granule formation improvement ratio” value in assay [7] came to 11.0%.

Consider `CC1=NN(c2ccccc2)C(=O)C1` [Edaravone], for which the “LDH leakage ratio improvement ratio” value was 12.4% in assay [1] and 23.2% in assay [2]. Also, in assay [3], the “Ectopic localization of FUS protein improvement ratio” value is on record as 20.4%. Moreover, the “Neurite length improvement ratio” value is 14.2% in assay [4] and 15.9% in assay [6]. Also, the “TDP-43 inclusion formation improvement ratio” value in assay [5] was 11.6%. Moreover, the “Stress granule formation improvement ratio” value in assay [7] turned out to be 19.8%.
